Like-named read-outs stand apart in the source and are kept apart here. Each block holds one molecule with its values, some of them ahead of it.
Tests used:
[1] = molecular target: GST-p53 DNA binding domain (aa 92-aa 312) (Homo sapiens, UniProt P04637); assay: Scintillation Proximity Assay (SPA), displacement of 3H STANDARD COMPOUND; settings: for remaining activity at 2 µg/mL: 1 h
From the text: Most of the oncogenic mutants of the tumor suppressor protein p53 lack sequence specific DNA binding activity at physiological temperature due to conformational changes in the DNA binding domain. Small molecules and peptide which bind to the p53 DNA binding domain stabilize the conformation and restore DNA binding activity to mutant p53 protein (Science 286, 2507-2510, 1999; PNAS, 99, 937-942, 2002). Using ^3H STANDARD COMPOUND (which is ^3H of the compound #1 of the present invention; the * Carbon atom is the one labeled; structure shown below), [drawing 2234] a radio labeled small molecule which binds to p53, and the GST-p53 DNA binding domain (aa 92-aa 312), we have developed a quantitative screening assay. The assay is based on Scintillation Proximity Assay (SPA) technology, developed by Amersham Biosciences to measure molecular interactions. Briefly, the complex of GST-p53, ^3H STANDARD and Glutathione-SPA beads (Amersham Biosciences) are incubated with mixing for 1 hr at room temperature in the presence of the novel compounds to be screened. The signal is read on Microbeta. The compounds which have the ability to displace ^3H STANDARD COMPOUND are selected. Such molecules will stabilize the conformation and restore DNA binding activity to mutant p53 protein.
The above assay was used to determine the ability of the compounds of this invention to restore DNA binding activity to mutant p53 and the results for selected compounds have been given above in various tables.
A letter rating corresponding to % Residual total binding (T) @ 2 ug/mL of drug (i.e., compound of the present invention) from this assay have been assigned as follows: Compounds having % Residual T values of from 0% to less than 20% have been assigned the letter “A”. Compounds having % Residual T values of from 20% to less than 40% have been assigned the letter “B”. Compounds having % Residual T values of from 40% to less than 80% have been assigned the letter “C”. Compounds having % Residual T values of 80% or higher have been assigned the letter “D”. The exact % Residual T values @ 2 ug/mL for some illustrative compounds are shown below: […]

MB468 = assay: Proliferation assay (Calcein AM viability, 72 hours); format: cell-based
Experimental: This assay measures the growth suppression effects of small molecules in cells with mutant p53 vs. p53 null background. It uses Calcein AM to measure cellular viability. Cells (p53 null and mutant) are harvested and plated at 5000 cells per well in a 96-well tissue culture plate. The volume of cells in growth media is 100 µl. Serial dilutions (2× concentration) of compounds are then made and transferred to the plate of cells. The volume of compounds in the growth media is 100 μL. This dilution of compound with cells gives a 1× final dilution of compound (200 μL total volume). Plates are then incubated at 37° C. for 72 hours. Media is then poured off and Calcein AM is added at the appropriate concentration and the plates are incubated in the dark for 15 minutes and read for fluorescence. […] Compounds having EC50 values of 6 uM or higher have been assigned the letter “D”. These letter rating has been used throughout in the data tables above.

[2] = 2 ug/mL of drug, lower is better, read-out: SPA ASSAY % Residual T @ 2 ug/mL of drug (Average of)
[3] = 2 ug/mL of drug, lower is better, read-out: % Residual T @ 2 ug/mL rating according to scintillation proximity assay (SPA)
[4] = MB168 [sic], read-out: PROFILERATION ASSAY EC50 MB168
[5] = MB468, read-out: PROLIFERATION ASSAY EC50 MB468
[6] = read-out: SPA ASSAY (% residual T @ 2 ug/mL of drug)
[7] = MB468 cells, read-out: PROFILE-RATION ASSAY EC50 MB468
[8] = 72 h, MB468 cells, 72 hours, read-out: PROLIFERATION ASSAY EC50 MB468

Sequence of GST-p53 DNA binding domain (aa 92-aa 312) (P04637 92-312): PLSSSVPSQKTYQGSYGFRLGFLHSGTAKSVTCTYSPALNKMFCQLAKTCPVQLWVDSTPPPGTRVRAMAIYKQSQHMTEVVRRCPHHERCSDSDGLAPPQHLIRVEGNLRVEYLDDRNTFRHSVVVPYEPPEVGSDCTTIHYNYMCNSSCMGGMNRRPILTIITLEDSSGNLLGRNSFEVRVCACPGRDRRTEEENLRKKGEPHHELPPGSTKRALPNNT

SMILES: COC(=O)[C@@H](Nc1nc(CN2CCN(C(=O)Nc3ccc(C(C)C)cc3)CC2)nc2ccccc12)C(C)C [Example 20-29]
SPA Assay (% residual T @ 2 ug/mL of drug) ([1]; 2 ug/mL of drug): B (Compounds having % Residual T values of from 20% to less than 40% have been assigned the letter “B”) | remaining activity at 2 µg/mL [1, 2]: 39.5% | EC50 (MB468; MB468 cells, read-out: PROLIFERATION ASSAY EC50 MB468): 4 to 6 µM

SMILES: CN(C)CC[C@H](Nc1nc(CN2CCN(C(c3ccc(Cl)cc3)c3ccc(Cl)cc3)CC2)nc2ccccc12)C(N)=O [Example 43, 2(S)-(−)-2-(2-{4-[BIS-(4-CHLOROPHENYL)METHYL]PIPERAZIN-1-YLMETHYL}QUINAZOLIN-4-YLAMINO)-4-DIMETHYLAMINOBUTYRAMIDE]
remaining activity at 2 µg/mL [1, 3]: 40 to 80%

SMILES: CN(CCC1C=Nc2ccccc21)c1nc(CN2CCN(C(c3ccc(Cl)cc3)c3ccc(Cl)cc3)CC2)nc2ccccc12 (stereo not drawn) [Example 30-18]
EC50 (MB468; [5]): 2 to 4 µM

SMILES: CN(Cc1ccccc1)c1nc(CN2CCN(C(c3ccc(Cl)cc3)c3ccc(Cl)cc3)CC2)nc2ccccc12 [Example 30-11]
EC50 (MB468; [5]): > 6 µM

SMILES: CN(C)CCCC[C@H](Nc1nc(CN2CCN(C(c3ccc(Cl)cc3)c3ccc(Cl)cc3)CC2)nc2ccccc12)C(N)=O [Example 47, 2(S)-(+)-2-(2-{4-[BIS-(4-CHLOROPHENYL)METHYL]PIPERAZIN-1-YLMETHYL}QUINAZOLIN-4-YLAMINO)-6-DIMETHYLAMINOHEXANAMIDE]
remaining activity at 2 µg/mL [1, 3]: 40 to 80%

SMILES: Clc1ccc(C(c2ccc(Cl)cc2)N2CCN(Cc3nc(N4CCCCCC4)c4ccccc4n3)CC2)cc1 [Example 30-5]
EC50 (MB468; [5]): 2 to 4 µM

SMILES: CC(C)COC(=O)[C@H](CCCN(C)C)Nc1nc(CN2CCN(C(c3ccc(Cl)cc3)c3ccc(Cl)cc3)CC2)nc2ccccc12 [Example 45, 2(S)-(−)-2-(2-{4-[BIS-(4-CHLOROPHENYL)METHYL]PIPERAZIN-1-YLMETHYL}QUINAZOLIN-4-YLAMINO)-5-DIMETHYLAMINOPENTANOIC ACID ISOBUTYL ESTER]
remaining activity at 2 µg/mL [1, 3]: > 80%

SMILES: Clc1ccc(C(c2ccc(Cl)cc2)N2CCN(Cc3nc(N4CCC(Cc5ccccc5)CC4)c4ccccc4n3)CC2)cc1 [Example 30-19]
EC50 (MB468; [5]): 4 to 6 µM

SMILES: CCC(C)(C)C1CCC(N2CCN(Cc3nc(NCCCN(C)C)c4ccccc4n3)CC2)C1 (stereo not drawn) [Example 25-73]
SPA Assay (% residual T @ 2 ug/mL of drug) ([1]; 2 ug/mL of drug): C (Compounds having % Residual T values of from 40% to less than 80% have been assigned the letter “C”) | EC50 (MB468; [7]): 4 to 6 µM

SMILES: Clc1ccc(C(c2ccc(Cl)cc2)N2CCN(Cc3nc(N4CCc5ccccc5C4)c4ccccc4n3)CC2)cc1 [Example 30-12]
EC50 (MB468; [5]): > 6 µM

SMILES: COc1ccc(/C=C/c2nc(NCCCN(C)C)c3ccccc3n2)cc1 [CP-31398, reference compound]
EC50 (MB468; [8]): 4.1 µM

SMILES: CN(C)CCCNc1nc(CN2CCN(C(=O)Nc3ccc(C#N)cc3)CC2)nc2ccccc12 [Example 28-13]
SPA ASSAY (% Residual T @ 2 ug/mL of drug (average of)) ([1]; 2 ug/mL of drug): C (Compounds having % Residual T values of from 40% to less than 80% have been assigned the letter “C”) | EC50 (MB468; [4]): > 6 µM

SMILES: CN(C)CCCNc1nc(CN2CCN(C(c3ccccc3)c3ccc(OC(F)(F)F)cc3)CC2)nc2ccccc12 (stereo not drawn) [Example 11-2]
EC50 (MB468; [8]): 1.6 µM

SMILES: Cc1cc(C)c(NC(=O)N2CCN(Cc3nc(NCCCN(C)C)c4ccccc4n3)CC2)c(C)c1 [Example 28-4]
SPA ASSAY (% Residual T @ 2 ug/mL of drug (average of)) ([1]; 2 ug/mL of drug): C (Compounds having % Residual T values of from 40% to less than 80% have been assigned the letter “C”) | EC50 (MB468; [4]): 4 to 6 µM

SMILES: CCOC(=O)[C@H](CCN(C)C)Nc1nc(CN2CCN(C(c3ccc(Cl)cc3)c3ccc(Cl)cc3)CC2)nc2ccccc12 [Example 44, 2(S)-(+)-2-(2-{4-[bis-(4-chlorophenyl)methyl]piperazin-1-ylmethyl}quinazoline-4-ylamino)-4-dimethylaminobutyric acid ethyl ester]
remaining activity at 2 µg/mL [1, 3]: 40 to 80%

SMILES: CN(C)CCCNc1nc(CN2CCN(C(c3ccccc3)c3ccc(OC(F)(F)F)cc3)CC2)nc2ccccc12 (stereo not drawn) [Example 11-1]
remaining activity at 2 µg/mL [1, 2]: 27.9% | EC50 (MB468; MB468 cells, 72 hours, read-out: PROLIFERATION ASSAY EC50 MB468): 1.4 µM

SMILES: CN(C)CCCNc1nc(CN2CCN(Cc3cccc4cc[nH]c34)CC2)nc2ccccc12 [Example 25-29]
SPA Assay (% residual T @ 2 ug/mL of drug) ([1]; 2 ug/mL of drug): B (Compounds having % Residual T values of from 20% to less than 40% have been assigned the letter “B”) | remaining activity at 2 µg/mL [1, 2]: 37.9% | EC50 (MB468; [7]): 4 to 6 µM

SMILES: CCC(C)(C)C1CCC(N2CCN(Cc3nc(NCCCN(C)C)c4ccccc4n3)CC2)CC1 (stereo not drawn) [Example 25-90]
SPA Assay (% residual T @ 2 ug/mL of drug) ([1]; 2 ug/mL of drug): B (Compounds having % Residual T values of from 20% to less than 40% have been assigned the letter “B”) | remaining activity at 2 µg/mL [1, 2]: 38.1% | EC50 (MB468; [8]): 2 µM | EC50 (MB468; [7]): 2 to 4 µM

SMILES: Clc1ccc(C(c2ccc(Cl)cc2)N2CCN(Cc3nc(N4CCN(c5ccccc5)CC4)c4ccccc4n3)CC2)cc1 [Example 30-15]
EC50 (MB468; [5]): 4 to 6 µM

SMILES: Clc1ccc(C(c2ccc(Cl)cc2)N2CCN(Cc3nc(N4CCN(c5ncccn5)CC4)c4ccccc4n3)CC2)cc1 [Example 30-17]
EC50 (MB468; [5]): > 6 µM

SMILES: CN(C)CCC[C@H](Nc1nc(CN2CCN(C(c3ccc(Cl)cc3)c3ccc(Cl)cc3)CC2)nc2ccccc12)C(N)=O [Example 46, 2(S)-(+)-2-(2-{4-[BIS-(4-CHLOROPHENYL)METHYL]PIPERAZIN-1-YLMETHYL}QUINAZOLIN-4-YLAMINO)-5-DIMETHYLAMINOPENTANAMIDE]
remaining activity at 2 µg/mL [1, 3]: > 80%

SMILES: Clc1ccc(C(c2ccc(Cl)cc2)N2CCN(Cc3nc(N4CCN(Cc5ccccc5)CC4)c4ccccc4n3)CC2)cc1 [Example 30-20]
EC50 (MB468; [5]): 2 to 4 µM

Further lines, with some results ahead:

remaining activity at 2 µg/mL [1, 2]: 29.9%
SMILES: CN(C)CCCNc1nc(CN2CCN(C(=O)Nc3ccc(Cl)c(Cl)c3)CC2)nc2ccccc12 [Example 28-39]
SPA ASSAY (% Residual T @ 2 ug/mL of drug (average of)) ([1]; 2 ug/mL of drug): B (Compounds having % Residual T values of from 20% to less than 40% have been assigned the letter “B”) | EC50 (MB468; [4]): 4 to 6 µM

remaining activity at 2 µg/mL [1, 6]: > 80%
SMILES: CCN(CC)C(=O)C1CCCN(c2nc(CN3CCN(C(c4ccc(Cl)cc4)c4ccc(Cl)cc4)CC3)nc3ccccc23)C1 (stereo not drawn) [Example 30-25]
EC50 (MB468; [5]): > 6 µM

remaining activity at 2 µg/mL [1, 2]: 38%
SMILES: COc1ccc(NC(=O)N2CCN(Cc3nc(NCCCN(C)C)c4ccccc4n3)CC2)cc1 [Example 28-20]
SPA ASSAY (% Residual T @ 2 ug/mL of drug (average of)) ([1]; 2 ug/mL of drug): B (Compounds having % Residual T values of from 20% to less than 40% have been assigned the letter “B”) | EC50 (MB468; [4]): > 6 µM

remaining activity at 2 µg/mL [1, 6]: 40 to 80%
SMILES: O=c1[nH]c2ccccc2n1C1CCN(c2nc(CN3CCN(C(c4ccc(Cl)cc4)c4ccc(Cl)cc4)CC3)nc3ccccc23)CC1 [Example 30-30]
EC50 (MB468; [5]): 4 to 6 µM

remaining activity at 2 µg/mL [1, 6]: > 80%
SMILES: NC(=O)C1CCN(c2nc(CN3CCN(C(c4ccc(Cl)cc4)c4ccc(Cl)cc4)CC3)nc3ccccc23)CC1 [Example 30-28]
EC50 (MB468; [5]): > 6 µM

remaining activity at 2 µg/mL [1, 6]: > 80%
SMILES: CN(CCc1ccccn1)c1nc(CN2CCN(C(c3ccc(Cl)cc3)c3ccc(Cl)cc3)CC2)nc2ccccc12 [Example 30-14]
EC50 (MB468; [5]): 4 to 6 µM

remaining activity at 2 µg/mL [1, 6]: > 80%
SMILES: OC1CCN(c2nc(CN3CCN(C(c4ccc(Cl)cc4)c4ccc(Cl)cc4)CC3)nc3ccccc23)CC1 [Example 30-27]
EC50 (MB468; [5]): 4 to 6 µM

remaining activity at 2 µg/mL [1, 6]: > 80%
SMILES: Clc1ccc(C(c2ccc(Cl)cc2)N2CCN(Cc3nc(N4CCOCC4)c4ccccc4n3)CC2)cc1 [Example 30-3]
EC50 (MB468; [5]): > 6 µM

remaining activity at 2 µg/mL [1, 6]: > 80%
SMILES: O=C(C1CCCO1)N1CCN(c2nc(CN3CCN(C(c4ccc(Cl)cc4)c4ccc(Cl)cc4)CC3)nc3ccccc23)CC1 (stereo not drawn) [Example 30-22]
EC50 (MB468; [5]): > 6 µM

remaining activity at 2 µg/mL [1, 6]: 40 to 80%
SMILES: CN(C)[C@@H]1CCN(c2nc(CN3CCN(C(c4ccc(Cl)cc4)c4ccc(Cl)cc4)CC3)nc3ccccc23)C1 [Example 30-26]
EC50 (MB468; [5]): > 6 µM

remaining activity at 2 µg/mL [1, 6]: > 80%
SMILES: OC1CCN(c2nc(CN3CCN(C(c4ccc(Cl)cc4)c4ccc(Cl)cc4)CC3)nc3ccccc23)C1 (stereo not drawn) [Example 30-4]
EC50 (MB468; [5]): > 6 µM
